One block for each molecule: values may come before it.
What was measured:
Assay type in all cases: physicochemical
[1] = Sorption of 6-gingerol to full-fat soybean flour (HPLC-MS peak area); settings: 6-gingerol 9 μg/ml in water, full-fat soybean flour 30 g/L, 10 ml, 5 minutes
Protocol: 6-Gingerol (Sigma) was diluted in water to a concentration of 9 μg/ml. Full-fat soybean flour was added to the solution at a concentration of 30 g/L in a volume of 10 ml, mixed for 5 minutes and then centrifuged for 10 minutes at 4000 rpm. The supernatant was removed. Full-fat soybean flour was used as a control. Both the 6-gingerol solution before soybean flour treatment (i.e., plant juice) and that obtained after soybean flour treatment (i.e., plant liquor) were subjected to HPLC-MS; the injection volume for each sample was 10 μl.

[2] = Sorption of quercetin from grape juice by soybean flour (HPLC-MS); settings: 5 minutes, n=1; for % Quercetin Sorbed to SF / Concentration of Quercetin in Soybean flour: Concord grape juice 50 mL, soybean flour 30 g/L
Protocol: Soybean flour (30 g/L) was added to 50 mL of Concord grape juice and mixed at room temperature for five minutes. The juice was separated from the flour by centrifugation and then filtered through a 0.22 μm syringe filter. Untreated and soybean flour-treated juice samples (n=1) were processed as described in Example 8 and the quercetin content of untreated and soybean flour-treated samples was determined by HPLC-MS. Quercetin is a polyphenolic flavonoid compound. More specifically, it is a flavonol known in the art to have anti-inflammatory and antioxidant properties, and it is expected to be useful in treating cancer. Quercetin is also known to have endurance-promoting effects.

[3] = Sorption of resveratrol from grape juice by soybean flour (HPLC-MS)
Protocol: Soybean flour (30 g/L) was added to 50 mL of Concord grape juice and mixed at room temperature for five minutes. The juice was separated from the flour by centrifugation and then filtered through a 0.22 μm syringe filter. The resveratrol content of the untreated and flour-treated juice samples (n=1) was quantified by HPLC-MS according to a previously published method (Wang et al., J. Agric. Food Chem., 50:431-435, 2002, the disclosure of which is incorporated herein by reference in its entirety.).
The enriched substance was prepared as follows. Briefly, 2 ml of untreated or soybean flour-treated grape juice sample was mixed with 20 ml of methanol overnight and samples were then centrifuged at 2280 g for 5 minutes and the methanol portion was removed. The solid residue was washed with an additional 10 ml of methanol. Methanol supernatants were combined and evaporated using a rotary evaporator and the methanol-free samples were diluted in 10 ml of water for enzymatic hydrolysis with 30 mg β-D-glucosidase (2.3 units/mg). Each sample was then extracted four times with 7 ml of water-saturated ethyl acetate. Ethyl acetate extracts were combined and evaporated to dryness under vacuum using a rotary evaporator. Residues were dissolved in 1 ml of methanol/0.5% formic acid (7:3; v/v) for LC-MS analysis. Standards of resveratrol were prepared for LC-MS to generate standard curves and quantify the levels of each compound in juice samples.

[4] = Sorption of caffeine from green tea by defatted soybean flour (HPLC-MS); settings: green tea after SFDF 30 g/L, n=1
Protocol: The amount of caffeine in the untreated and soybean flour-treated tea samples (n=1) was also tested. […] Caffeine is a psychoactive stimulant that provides health benefits beyond the familiar increase in alertness and energy associated with coffee and tea consumption. The untreated and flour-treated tea samples described above were diluted 10 times in 0.1% acetic acid (1 μL glacial acetic acid and 1 mL water). Samples were subject to HPLC-MS and caffeine was quantified against a caffeine standard curve.

[5] = Sorption of sesquiterpene lactones from chicory root extract to defatted soybean flour (HPLC-MS peak area); settings: chicory root water extract 50 ml, defatted soybean flour 100 g/L, 5 minutes
Protocol: Dried chicory root was ground to a powder and 25 g was extracted in 500 ml of water for three hours in a 50° C. water bath with sonication. The water extract was separated from the plant material by filtration. Defatted soybean flour was mixed for 5 minutes with 50 ml of the chicory root extract at a concentration of 100 g/L followed by centrifugation (10 minutes, 15,000 rpm) and filtration of the supernatant. Untreated and soybean flour-treated chicory root extract were subjected to HPLC-MS; the injection volume for each sample was 10 μl. The amounts of the dihydrolactucin, lactucopicrin and dihydrolactucopicrin compounds present in the chicory root extract sorbed to the soybean flour were determined by calculating the percent decrease in peak area before and after treatment of the chicory extract with soybean flour.

[6] = Concord grape juice 50 mL, soybean flour 30 g/L, 5 minutes, n=1

Molecule: CCCCC[C@H](O)CC(=O)CCc1ccc(O)c(OC)c1 [6-gingerol, 6-Gingerol]
% of 6-gingerol sorbed by soybean flour (percent decrease in peak area) [1]: 63%

Molecule: O=c1c(O)c(-c2ccc(O)c(O)c2)oc2cc(O)cc(O)c12 [Quercetin]
Quercetin in Grape Juice ([2]; Concord grape juice 50 mL after soybean flour 30 g/L): 519 ng/mL
% Quercetin Sorbed to SF [2]: 74%
Concentration of Quercetin in Soybean flour [2]: 49.3 µg/g
% Quercetin Sorbed to SF ([2]; listed as quercetin): about 74%
Concentration of Quercetin in Soybean flour ([2]; listed as quercetin): approximately 49.3 μg/g

Molecule: Cn1c(=O)c2c(ncn2C)n(C)c1=O [caffeine]
Caffeine Concentration [4]: 383.1 mg/L

Continued, values first:

Bound resveratrol (amount) ([3]; 1.5 g soybean flour in 50 mL grape juice): 88.8 mg
Resveratrol in Grape Juice ([3]; Concord grape juice 50 mL after soybean flour 30 g/L, 5 minutes, n=1): 325 ng/mL
% Resveratrol Sorbed to SF [3, 6]: 85%
Concentration of Resveratrol in SF [3, 6]: 59.2 µg/g
Molecule: Oc1ccc(C=Cc2cc(O)cc(O)c2)cc1 [Resveratrol]

% of compound sorbed by soybean flour from chicory root extract (percent decrease in peak area) [5]: 80%
Molecule: CC1=C2C(=O)C=C(CO)[C@@H]2[C@H]2OC(=O)[C@@H](C)[C@@H]2[C@H](OC(=O)Cc2ccc(O)cc2)C1 [dihydrolactucopicrin]

% of compound sorbed by soybean flour from chicory root extract (percent decrease in peak area) [5]: 100%
Molecule: lactucopicrin

— patent publication US10646529B2, “Methods of obtaining natural products from the comestible fluids and methods of use” (BOARD OF TRUSTEES, RUTGERS, THE STATE UNIVERSITY OF NEW …, priority 2010, dated 2020)
